Where two headings read alike, the source gives them in different places.
Experiments:
Format in all cases: cell-based
[1] = target: EGFR in Baf3-L858R-T790M-C797S (Homo sapiens, UniProt P00533, C797S/L858R/T790M); test: EGFR PROTAC HTRF experiment (total EGFR degradation)
Method: (§1) [table] Among them, B[…] -C797S (abbreviated as Baf3-DTC) is a stable Ba/F3 clone expressing exogenous EGFR gene bearing T790M, C797S and […] triple amino acid mutations, purchased from KYinno; Baf3-L858R-T790M - C797S (abbreviated as Baf3-LTC) is a stable Ba/F3 clone expressing exogenous EGFR gene bearing […], T790M, C797S triple mutations, purchased from KYinno. [table] [table] Dilutded Eu and d2 antibodies 2μl per well with detection buffer 20-fold. Then mixed the two antibody vials thoroughly. [table] Opened EnVision , locate the HTRF program, configured the board, and then read […]. The fitted curve, DC50 and Dmax of this compound could be generated using GraphPad Prism .

[2] = target: EGFR in Baf3-19del-T790M-C797S (Homo sapiens, UniProt P00533, C797S/DEL746-750/T790M); test: as above
EGFR in Baf3-19del-T790M-C797S, sequence (P00533 with tags, fused parts or gaps DEL746-750/T790M/C797S): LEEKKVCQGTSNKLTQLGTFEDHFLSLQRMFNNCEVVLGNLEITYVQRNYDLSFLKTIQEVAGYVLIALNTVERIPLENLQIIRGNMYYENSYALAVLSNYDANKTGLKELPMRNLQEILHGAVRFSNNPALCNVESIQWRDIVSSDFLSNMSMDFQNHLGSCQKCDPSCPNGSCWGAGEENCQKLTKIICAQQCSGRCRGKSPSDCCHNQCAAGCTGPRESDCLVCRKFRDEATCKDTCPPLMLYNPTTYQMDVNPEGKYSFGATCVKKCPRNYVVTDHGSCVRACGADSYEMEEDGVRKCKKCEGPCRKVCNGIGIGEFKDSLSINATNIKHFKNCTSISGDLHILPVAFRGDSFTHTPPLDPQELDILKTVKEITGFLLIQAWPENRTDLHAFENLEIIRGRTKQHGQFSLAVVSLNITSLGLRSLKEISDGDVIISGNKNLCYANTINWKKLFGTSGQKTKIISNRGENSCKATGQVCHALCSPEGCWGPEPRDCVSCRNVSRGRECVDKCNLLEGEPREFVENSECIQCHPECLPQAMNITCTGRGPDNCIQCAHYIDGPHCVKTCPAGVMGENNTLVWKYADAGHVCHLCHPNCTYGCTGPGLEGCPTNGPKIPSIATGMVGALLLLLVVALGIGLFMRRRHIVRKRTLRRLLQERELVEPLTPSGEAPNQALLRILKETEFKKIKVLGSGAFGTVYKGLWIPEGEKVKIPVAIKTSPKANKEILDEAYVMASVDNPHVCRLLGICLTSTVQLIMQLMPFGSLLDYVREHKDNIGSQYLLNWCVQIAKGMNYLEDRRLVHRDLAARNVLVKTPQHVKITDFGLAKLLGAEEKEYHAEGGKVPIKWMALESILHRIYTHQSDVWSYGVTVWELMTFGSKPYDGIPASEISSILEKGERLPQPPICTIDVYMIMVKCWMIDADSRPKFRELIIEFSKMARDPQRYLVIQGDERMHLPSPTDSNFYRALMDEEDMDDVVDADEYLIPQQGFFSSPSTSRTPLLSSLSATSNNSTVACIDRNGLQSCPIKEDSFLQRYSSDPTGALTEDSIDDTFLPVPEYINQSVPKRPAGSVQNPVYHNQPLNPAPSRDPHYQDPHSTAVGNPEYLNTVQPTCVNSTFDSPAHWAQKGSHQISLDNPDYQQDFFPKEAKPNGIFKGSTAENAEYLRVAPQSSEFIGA
Method: as §1

HCC827 = test: Cell anti-proliferation experiment (CTG); conditions: Homo sapiens, HCC827 (exon 19 deletion), class symbol
From the text: (§2) H1975 has an EGFR: T790M/L858R double mutation, PC-9 has an EGFR exon 19 deletion, and HCC827 has an exon 19 deletion mutation. Baf3-19del- T790M -C797S (Baf3-DTC) is a stable Ba/F3 clone expressing exogenous EGFR gene bearing T790M, C797S, and […] triple amino acid mutations, purchased from KYinno. Baf3-L858R-T790M - C797S (Baf3-LTC) is a stable Ba/F3 clone expressing exogenous EGFR gene bearing […], T790M, and C797S triple mutations, purchased from KYinno. A549 is a wild-type EGFR, purchased from Nanjing Kebai Biotechnology. A431 is a wild-type EGFR, purchased from Shanghai Xinyu Biotechnology. CellCounting-Lite2.0, Trypsin EDTA, 37°C CO2 incubator, cell counter, EnVision Serial No. 1050454.
(§3) • A) Digested logarithmic phase cells with Trypsin EDTA, added culture medium to stop the reaction, and mixing well with a pipette to prepare a cell suspension. • B) Used Vi-cell to determine cell concentration, and prepared a suspension of 15,000-25,000 cells per milliliter according to the experimental purpose and cell characteristics. • C) After prepared the cell suspension, mixed it gently and added 100 µL to each well, so that the cell density to be tested is 1500-2500 per well.
(§4) • A) Weighed approximately 2 mg the compound and calculated the required volume of DMSO according to the formula: Compound mass (mg) * Compound purity (%) / Compound molecular weight * 1000. • B) Placed the inoculated cell culture plate into an incubator and incubated for about 24 hours. Then added compounds of varying concentrations. • C) Diluted the 10mM compound stock solution to […] with culture medium, and added the […] compound solution to the second column of the deep well plate in sequence, and added […] culture medium containing 0.5% DMSO to the third to eleventh columns. • D) Gradient dilution: Taked 125 µL solution from the second column and added it to the third column, mix well; then taked 125 µL solution from the third column and added it to the fourth column, repeated this operation until the tenth column. • E) Used a multichannel pipette, aspirated 25 µL the compound from the deep-well plate and added it to a 96-well culture plate. Repeated this process three times for each compound on the 96-well plate. This will ultimately create a concentration gradient of up to 10,000 nM at a 1:4 ratio on the 96-well plate.
(§5) • A) The effects of the compound were observed under an inverted microscope after the 96-well plate was incubated in an incubator for 72 hours. • B) Added 25 µL CTG solution to each well, placed on a shaker for 10 minutes, and read the […] of each well.
(§6) Calculate the % Cell Viability using the following formula: %Cell Viability = 100% × (Lum_Sample−Lum_LC)/(Lum_HC−Lum_LC) [formula] • Lum_HC: Cell readings from the 0.1% DMSO control group • Lum_Sample: Cell readings with added compound • Lum_LC: Blank culture medium reading
(§7) The IC50 value was obtained by curve fitting using GraphPad Prism 8 software.

[3] = tested on: Baf3-L858R-T790M - C797S (Baf3-LTC); test: Cell anti-proliferation experiment (CTG); conditions: class symbol
From the text: as §2, §3, §4, §5, §6, §7

H1975 = test: Cell anti-proliferation experiment (CTG); conditions: Homo sapiens, H1975 (EGFR T790M/L858R), class symbol
From the text: as §2, §3, §4, §5, §6, §7

A549 = test: Cell anti-proliferation experiment (CTG); conditions: Homo sapiens, A549 (wild-type EGFR), class symbol
From the text: as §2, §3, §4, §5, §6, §7

PC-9 = test: Cell anti-proliferation experiment (CTG); conditions: Homo sapiens, PC-9 (EGFR exon 19 deletion), class symbol
From the text: as §2, §3, §4, §5, §6, §7

A431 = test: Cell anti-proliferation experiment (CTG); conditions: Homo sapiens, A431 (wild-type EGFR), class symbol
From the text: as §2, §3, §4, §5, §6, §7

[4] = tested on: Baf3-19del- T790M -C797S (Baf3-DTC); test: Cell anti-proliferation experiment (CTG); conditions: class symbol
From the text: as §2, §3, §4, §5, §6, §7

[5] = Baf3-LTC, incubated 16 hours, HTRF total EGFR; read-out: Baf3-LTC DC50
[6] = Baf3-LTC, incubated 16 hours, HTRF total EGFR; read-out: Baf3-LTC Dmax
[7] = Baf3-DTC, incubated 16 hours, HTRF total EGFR; read-out: Baf3-DTC DC50
[8] = Baf3-DTC, incubated 16 hours, HTRF total EGFR; read-out: Baf3-DTC Dmax

EGFR in Baf3-L858R-T790M-C797S, sequence (P00533 25-1210 T790M/C797S/L858R): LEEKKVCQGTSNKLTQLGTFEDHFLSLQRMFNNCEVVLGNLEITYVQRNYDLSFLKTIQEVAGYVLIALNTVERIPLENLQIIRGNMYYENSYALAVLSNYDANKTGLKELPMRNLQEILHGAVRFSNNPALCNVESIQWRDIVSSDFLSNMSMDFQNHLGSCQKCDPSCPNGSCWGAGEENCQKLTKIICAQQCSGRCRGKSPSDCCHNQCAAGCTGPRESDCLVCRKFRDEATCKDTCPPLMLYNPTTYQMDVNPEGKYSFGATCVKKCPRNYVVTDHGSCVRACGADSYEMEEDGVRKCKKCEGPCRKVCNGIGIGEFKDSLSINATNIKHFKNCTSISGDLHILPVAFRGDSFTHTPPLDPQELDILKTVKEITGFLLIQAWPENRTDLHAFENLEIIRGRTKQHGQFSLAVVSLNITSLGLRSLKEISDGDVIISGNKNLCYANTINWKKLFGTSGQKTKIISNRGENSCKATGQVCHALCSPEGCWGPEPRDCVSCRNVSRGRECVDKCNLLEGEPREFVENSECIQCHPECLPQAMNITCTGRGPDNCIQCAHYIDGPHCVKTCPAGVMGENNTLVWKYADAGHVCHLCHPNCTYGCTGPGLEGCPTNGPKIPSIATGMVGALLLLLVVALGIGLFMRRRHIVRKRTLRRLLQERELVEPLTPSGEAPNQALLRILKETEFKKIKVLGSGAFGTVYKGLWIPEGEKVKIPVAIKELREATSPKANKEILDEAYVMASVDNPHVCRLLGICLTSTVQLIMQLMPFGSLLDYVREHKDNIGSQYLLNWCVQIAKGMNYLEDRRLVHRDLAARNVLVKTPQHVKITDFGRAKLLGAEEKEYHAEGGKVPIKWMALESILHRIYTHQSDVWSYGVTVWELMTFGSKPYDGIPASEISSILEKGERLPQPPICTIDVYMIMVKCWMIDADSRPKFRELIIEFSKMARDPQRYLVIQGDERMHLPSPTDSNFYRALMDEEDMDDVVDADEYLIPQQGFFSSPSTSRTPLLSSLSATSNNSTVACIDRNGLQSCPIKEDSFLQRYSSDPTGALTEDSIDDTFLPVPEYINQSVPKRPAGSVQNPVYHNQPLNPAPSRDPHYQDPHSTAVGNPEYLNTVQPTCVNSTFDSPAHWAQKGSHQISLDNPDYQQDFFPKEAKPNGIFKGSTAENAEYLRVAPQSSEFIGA

CCc1cc(Nc2ncc(Cl)c(Nc3ccc4nccnc4c3P(C)(C)=O)n2)c(OC)cc1N1CCN(C(=O)CN2CCC(c3cc4c(cc3F)c(N3CCC(=O)NC3=O)nn4C)C(F)(F)C2)CC1 (stereo not shown) [TA-007]
DC50 ([1]; read-out: Baf3-LTC DC50; Baf3-LTC, incubated 16 hours, HTRF total EGFR): < 10 nM
Dmax ([1]; read-out: Baf3-LTC Dmax): 70 to 100%
DC50 ([2]; read-out: Baf3-DTC DC50; Baf3-DTC, incubated 16 hours, HTRF total EGFR): < 10 nM
Dmax ([2]; read-out: Baf3-DTC Dmax): 70 to 100%
IC50 (HCC827; 72 hours): 10 to 100 nM
IC50 ([3]; 72 hours): < 10 nM
IC50 (H1975; NCI-H1975, 72 hours): 100 to 1000 nM
IC50 (A549; 72 hours): 10 to 100 nM
IC50 (PC-9; 72 hours): 100 to 1000 nM
IC50 (A431; A-431, 72 hours): 10 to 100 nM
IC50 ([4]; 72 hours): 10 to 100 nM

CCc1cc(Nc2ncc(Cl)c(Nc3ccc(Cl)cc3C(C)(C)O)n2)c(OC)cc1N1CCN(C(=O)CN2CCC(c3cc4c(cc3F)c(N3CCC(=O)NC3=O)nn4C)C(F)(F)C2)CC1 (stereo not shown) [TA-009]
DC50 [1, 5]: 100 to 1000 nM
Dmax [1, 6]: 70 to 100%
DC50 [2, 7]: 100 to 1000 nM
Dmax [2, 8]: 70 to 100%

CCc1cc(Nc2ncc(Cl)c(Nc3ccccc3N(C)S(C)(=O)=O)n2)c(OC)cc1N1CCN(C(=O)CN2CCC(c3cc4c(cc3F)c(N3CCC(=O)NC3=O)nn4C)C(F)(F)C2)CC1 (stereo not shown) [TA-013]
DC50 [1, 5]: < 10 nM
Dmax [1, 6]: 70 to 100%
DC50 [2, 7]: < 10 nM
Dmax [2, 8]: 70 to 100%
IC50 (HCC827; HCC827, 72 h): > 1000 nM
IC50 ([3]; 72 h): 10 to 100 nM
IC50 (H1975; NCI-H1975, 72 h): 10 to 100 nM
IC50 (A549; A549, 72 h): > 1000 nM
IC50 (PC-9; PC-9, 72 h): > 1000 nM
IC50 (A431; A-431, 72 h): > 1000 nM
IC50 ([4]; 72 h): < 10 nM

CCc1cc(Nc2ncc(Cl)c(Nc3ccc(OC)cc3C(C)=O)n2)c(OC)cc1N1CCN(C(=O)CN2CCC(c3cc4c(cc3F)c(N3CCC(=O)NC3=O)nn4C)C(F)(F)C2)CC1 (stereo not shown) [TA-017]
DC50 [1, 5]: 100 to 1000 nM
Dmax [1, 6]: 70 to 100%
DC50 [2, 7]: 100 to 1000 nM
Dmax [2, 8]: 70 to 100%

CCc1cc(Nc2ncc(Cl)c(Nc3ccccc3P(C)(C)=O)n2)c(OC)cc1N1CCN(C(=O)CN2CCC(c3cc4c(cc3F)c(N3CCC(=O)NC3=O)nn4C)C(F)(F)C2)[C@@H](C)C1 (stereo partly shown) [TA-025]
DC50 [1, 5]: 10 to 100 nM
Dmax [1, 6]: 70 to 100%
DC50 [2, 7]: 10 to 100 nM
Dmax [2, 8]: 70 to 100%
